Laboratory results from PMC11987180 (Biology Direct, 2025).

Experiments:
[1] = target: T1, human indolethylamine N-methyltransferase (hINMT) (Homo sapiens, UniProt O95050); experiment: quinoline-based continuous fluorometric methylation assay; type: biochemical
[2] = target: T1, human indolethylamine N-methyltransferase (hINMT); experiment: thermal shift assay; type: binding

T1 sequence (O95050 whole entry): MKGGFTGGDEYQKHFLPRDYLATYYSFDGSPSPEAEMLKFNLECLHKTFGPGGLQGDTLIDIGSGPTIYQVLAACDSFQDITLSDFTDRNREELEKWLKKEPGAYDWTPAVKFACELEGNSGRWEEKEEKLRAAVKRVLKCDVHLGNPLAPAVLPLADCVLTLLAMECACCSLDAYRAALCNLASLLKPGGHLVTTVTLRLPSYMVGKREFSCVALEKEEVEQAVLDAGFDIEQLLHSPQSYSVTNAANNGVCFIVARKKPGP

In the case of CNS(=O)(=O)CCc1ccc2[nH]cc(C3CCN(C)CC3)c2c1 [Naratriptan], the IC50 [1] is reported as 188.5 ± 1.8 µM.
Work on C[S+](CC[C@H](N)C(=O)[O-])C[C@H]1O[C@@H](n2cnc3c(N)ncnc32)[C@H](O)[C@@H]1O (some centres unmarked) [SAM] yielded a Kd [2] of 55.6 ± 2.6 µM.
